Consider 39 compounds from patent publication US7868037B2 (PTC Therapeutics, Inc., priority 2004, dated 2011).

Some results are limits rather than exact numbers.

The first data set concerns HCV replicon. The experiment in a line: microbe, parasite or virus in culture. The class given is cell-based, hepatitis C virus. The following applies: Hepatitis C virus, read-out: Replicon IC50 μM.
In the case of `CCn1cc(C#N)c2ccc(OC)cc21` [Compound 5, 1-ethyl-6-methoxy-1H-indole-3-carbonitrile], the IC50 is greater than 2 µM. As for `N#Cc1c(-n2cccc2)[nH]c2cc([N+](=O)[O-])ccc12` [Compound 7, 6-nitro-2-pyrrol-1-yl-1H-indole-3-carbonitrile], the concentration for half-maximal inhibition (IC50) was 0.5 to 2 µM.

Consider `CCOc1ccc2c(C#N)cn(CC)c2c1` [Compound 9, 6-ethoxy-1-ethyl-1H-indole-3-carbonitrile], for which the IC50 is greater than 2 µM. Regarding `CCn1cc(C#N)c2ccc(Oc3cnccn3)cc21` [Compound 13, 1-ethyl-6-(pyrazin-2-yloxy)-1H-indole-3-carbonitrile], the 50% inhibitory concentration (IC50) is greater than 2 µM.

`CCn1cc(C#N)c2ccc(C(=O)Nc3ccccc3)cc21` [Compound 15, 3-cyano-1-ethyl-1H-indole-6-carboxylic acid phenylamide]: the IC50 was greater than 2 µM. In the case of `CCn1cc(C#N)c2ccc(NC(=O)OC(C)(C)C)cc21` [Compound 16, t-butyl(3-cyano-1-ethyl-1H-indol-6-yl)-carbamate], the IC50 was greater than 2 µM. Consider `CCc1nc(-c2cn(CC)c3cc(OC)ccc23)no1` [Compound 28, 1-ethyl-3-(5-ethyl-[1,2,4]oxadiazol-3-yl)-6-methoxy-1H-indole], for which the IC50 lay within 0.5 to 2 µM. For the compound `COc1ccc(-n2cc(C#N)c3cc4c(cc32)OCO4)cc1` [Compound 44, 5-(4-methoxyphenyl)-5H-[1,3]dioxolo[4,5-f]indole-7-carbonitrile], the IC50 is greater than 2 µM.

`CCn1cc(-c2nccs2)c2ccc(OC)cc21` [Compound 73, 1-ethyl-6-methoxy-3-thiazol-2-yl-1H-indole]: the IC50 was greater than 2 µM. With `CCn1c(-c2ccc3oc(=O)[nH]c3c2)c(C#N)c2ccc(OC)cc21` [Compound 332, 1-ethyl-6-methoxy-2-(2-oxo-2,3-dihydro-benzooxazol-5-yl)-1H-indole-3-carbonitrile], the IC50 is greater than 2 µM. For `CCn1c(-c2ccc(NC(=O)NCCCl)cc2)c(C#N)c2ccc(OC)cc21` [Compound 442, 1-(2-chloroethyl)-3-[4-(3-cyano-1-ethyl-6-methoxy-1H-indol-2-yl)-phenyl]-urea], the IC50 was greater than 2 µM. Turning to `CCn1c(-c2ccc(N3CCOC3=O)cc2)c(C#N)c2ccc(OC(C)C)cc21` [Compound 638, 1-ethyl-6-isopropoxy-2-[4-(2-oxo-oxazolidin-3-yl)-phenyl]-1H-indole-3-carbonitrile], the IC50 was greater than 2 µM. In the case of `CCn1c(-c2ccc(NS(=O)(=O)CCN3CCOCC3)cc2)c(C#N)c2ccc(OC)cc21` [Compound 653, 2-morpholin-4-yl-ethanesulfonic acid [4-(3-cyano-1-ethyl-6-methoxy-1H-indol-2-yl)-phenyl]amide], the half-inhibitory concentration (IC50) is greater than 2 µM. With `CCn1c(-c2ccc(N3CCNC3=O)cc2)c(C#N)c2ccc(OC)cc21` [Compound 771, 1-ethyl-6-methoxy-2-[4-(2-oxo-imidazolidin-1-yl)-phenyl]-1H-indole-3-carbonitrile], the IC50 was less than 0.5 µM. With `CCn1c(-c2ccc([N+](=O)[O-])cc2)c(C#N)c2cc(C(C)=O)c(OC)cc21` [Compound 844, 5-acetyl-1-ethyl-6-methoxy-2-(4-nitro-phenyl)-1H-indole-3-carbonitrile], the half-maximal inhibitory concentration (IC50) was greater than 2 µM. Same read-out and setting: next, `CCn1c(-c2ccc([N+](=O)[O-])cc2)c(C#N)c2cc(CN3CCOCC3)c(OC)cc21` [Compound 845, 1-ethyl-6-methoxy-5-morpholin-4-ylmethyl-2-(4-nitro-phenyl)-1H-indole-3-carbonitrile]: greater than 2 µM.

Staying with this data set, now noted: Hepatitis C virus, read-out: Replicon IC50.
`CCOC(=O)Nc1cccc(-c2c(C#N)c3ccc(OCCCN4CCCC4)cc3n2CC)c1` [Compound 530, {3-[3-cyano-1-ethyl-6-(3-pyrrolidin-1-yl-propoxy)-1H-indol-2-yl]-phenyl}-carbamic acid ethyl ester]: the IC50 is less than 0.5 µM.

The data set is the same for the next values; noted with them: read-out: Replicon IC50.
For `CCn1cc(-c2ccon2)c2ccc(OC)cc21` [Compound 57, 1-ethyl-3-isoxazol-3-yl-6-methoxy-1-H-indole], the IC50 is greater than 2 µM. With `CCn1c(C#Cc2ccc(NP(C)(C)=O)cc2)c(C#N)c2ccc(OC)cc21` [Compound 227, N-[4-(3-cyano-1-ethyl-6-methoxy-1H-indol-2-ylethynyl)-phenyl]-dimethylphosphinic amide], the IC50 was 0.5 to 2 µM. As to `CCn1c(-c2ccc(NC(=O)C3CC3)cc2)c(C#N)c2cc(OC)ccc21` [Compound 244], the IC50 fell in the range of 0.5 to 2 µM. `C=Cn1c(-c2ccc(NS(=O)(=O)CCCCl)cc2)c(C#N)c2ccc(OC)cc21` [Compound 636]: the IC50 fell in the range of 0.5 to 2 µM. With “N-(2-chloro-ethyl)-N′-[4-(3-cyano-1-ethyl-6-methoxy-1H-indol-2-yl)phenyl]sulfamide [Compound 724]”, the IC50 was 0.5 to 2 µM. In the case of “ethanesulfonic acid [4-(3-cyano-6-difluoromethoxy-1-ethyl-1H-indol-2-yl)-phenyl]-amide [Compound 519]”, the IC50 was less than 0.5 µM.

Test system in another data set: not given
Test: not given
Settings: not given
`CCOc1ccc2c(C#N)c(-c3ccc(NC(=O)OC(C)C4CC4)cc3)n(C3CCC3)c2c1` (racemic) [Compound 1147, rac-[4-(3-cyano-1-cyclobutyl-6-ethoxy-1H-indol-2-yl)-phenyl]-carbamic acid 1-cyclopropyl-ethyl ester] came in with a melting point of 154 to 158 °C. Compound `CCn1cc(C#N)c2ccc(OC)cc21` [Compound 5, 1-ethyl-6-methoxy-1H-indole-3-carbonitrile] gave a melting point of 64 to 66 °C. Still for that read-out and setting: next, `N#Cc1c(-n2cccc2)[nH]c2cc([N+](=O)[O-])ccc12` [Compound 7, 6-nitro-2-pyrrol-1-yl-1H-indole-3-carbonitrile]: 304 to 305 °C; `CCOc1ccc2c(C#N)cn(CC)c2c1` [Compound 9, 6-ethoxy-1-ethyl-1H-indole-3-carbonitrile]: 61 to 63 °C. The same measure, in the same setting: then `CCn1cc(C#N)c2ccc(Oc3cnccn3)cc21` [Compound 13, 1-ethyl-6-(pyrazin-2-yloxy)-1H-indole-3-carbonitrile], with 161 to 164 °C; and `CCn1cc(C#N)c2ccc(C(=O)Nc3ccccc3)cc21` [Compound 15, 3-cyano-1-ethyl-1H-indole-6-carboxylic acid phenylamide], with 225 to 226 °C. As to `CCn1cc(C#N)c2ccc(NC(=O)OC(C)(C)C)cc21` [Compound 16, t-butyl(3-cyano-1-ethyl-1H-indol-6-yl)-carbamate], the melting point lay in the range of 175 to 177 °C. Still for that read-out and setting: then `CCc1nc(-c2cn(CC)c3cc(OC)ccc23)no1` [Compound 28, 1-ethyl-3-(5-ethyl-[1,2,4]oxadiazol-3-yl)-6-methoxy-1H-indole], with 68 to 70 °C; and `CCn1c(-c2ccc(NS(=O)(=O)CC)cc2)c(C#N)c2ccc(OC(F)(F)F)cc21` [Compound 881, ethanesulfonic acid [4-(3-cyano-1-ethyl-6-trifluoromethoxyindol-2-yl)phenyl]amide], with 194 to 195 °C; and `CCn1c(-c2ccc(N3CCCS3(=O)=O)cc2)c(C#N)c2ccc(OC(F)(F)F)cc21` [Compound 903, 2-[4-(1,1-dioxidoisothiazolidin-2-yl)phenyl]-1-ethyl-6-(trifluoromethoxy)indole-3-carbonitrile], with 230 to 232 °C.

The compound `C=CCn1c(-c2ccc(N3CCCC3=O)cc2)c(C#N)c2ccc(OC)cc21` [Compound 938, 1-allyl-6-methoxy-2-[4-(2-oxopyrrolidin-1-yl)-phenyl]-1H-indole-3-carbonitrile] yielded a melting point of 147 to 148 °C. Same read-out and setting: then `CCn1c(-c2ccc(N3CCCS3(=O)=O)cc2)c(C#N)c2ccc(OC3CC3)cc21` [Compound 1046, 6-cyclopropoxy-2-[4-(1,1-dioxo-1λ^6-isothiazolidin-2-yl)-phenyl]-1-ethyl-1H-indole-3-carbonitrile], with 232 to 234 °C; and `CCn1c(-c2ccc(NC(=O)OC)cc2)c(C#N)c2ccc(OC(F)F)cc21` [Compound 1130, [4-(3-cyano-6-difluoromethoxy-1-ethyl-1H-indol-2-yl)-phenyl]-carbamic acid methyl ester], with 177 to 178 °C.

Turning to `CCOc1ccc2c(C#N)c(-c3ccc(NC(=O)N4CCOCC4)cc3)n(C3CCC3)c2c1` [Compound 1166, morpholine-4-carboxylic acid [4-(3-cyano-1-cyclobutyl-6-ethoxy-1H-indol-2-yl)-phenyl]-amide], the melting point was in the range of 260 to 266 °C.

Consider `CCn1c(-c2ccc(NC(=O)C3CC3)cc2)c(C#N)c2ccc(OCCn3ccnc3)cc21` [Compound 1183, cyclopropanecarboxylic acid {4-[3-cyano-1-ethyl-6-(2-imidazol-1-yl-ethoxy)-1H-indol-2-yl]-phenyl}-amide], for which the melting point was in the range of 202.3 to 205.9 °C. The same measure, in the same setting: next, `CCOc1ccc2c(C#N)c(-c3ccc(N(CC)CC)cc3)n(C3CCC3)c2c1` [Compound 1217, 1-Cyclobutyl-2-(4-diethylamino-phenyl)-6-ethoxy-1H-indole-3-carbonitrile]: 135 to 141 °C.

As to `COc1ccc2c(C#N)c(-c3ccc(NC(=O)OC(C)C)cc3)n(C3CC3)c2c1` [Compound 1234, [4-(3-cyano-1-cyclopropyl-6-methoxyindol-2-yl)phenyl]carbamic acid isopropyl ester], the melting point lay within 204 to 205 °C. In turn, `CCNc1ccc(-c2c(C#N)c3ccc(OCC)cc3n2C2CCC2)cc1` [Compound 1239, 1-cyclobutyl-6-ethoxy-2-(4-ethylaminophenyl)-1H-indole-3-carbonitrile] displayed a melting point of 187 to 193 °C. Take `CCOc1ccc2c(C#N)c(-c3ccc(N(CC)C(=O)OC4CCCC4)cc3)n(C3CCC3)c2c1` [Compound 1251, [4-(3-cyano-1-cyclobutyl-6-ethoxy-1H-indol-2-yl)-phenyl]-ethyl-carbamic acid cyclopentyl ester]: the melting point is 137 to 142 °C. Compound `CC(C)OC(=O)Nc1ccc(-c2c(C#N)c3ccc(OCCCn4cncn4)cc3n2C2CCC2)cc1` [Compound 1255, {4-[3-cyano-1-cyclobutyl-6-(3-[1,2,4]triazol-1-yl-propoxy)-1H-indol-2-yl]-phenyl}-carbamic acid isopropyl ester] displayed a melting point of 208 °C.

Consider `CC(C)OC(=O)Nc1ccc(-c2c(C#N)c3ccc(OCCn4cncn4)cc3n2C2CCC2)cc1` [Compound 1276, {4-[3-cyano-1-cyclobutyl-6-(2-[1,2,4]triazol-1-yl-ethoxy)-1H-indol-2-yl]-phenyl}-carbamic acid isopropyl ester], for which the melting point was 214 °C. In the case of `CC(C)NC(=O)Nc1ccc(-c2c(C#N)c3ccc(OCCCn4cncn4)cc3n2C2CCC2)cc1` [Compound 1314, 1-{4-[3-cyano-1-cyclobutyl-6-(3-[1,2,4]triazol-1-yl-propoxy)-1H-indol-2-yl]-phenyl}-3-isopropyl-urea], the melting point fell in the range of 88 to 90 °C. As to `CC(OC(=O)Nc1ccc(-c2c(C#N)c3ccc(OCCn4cncn4)cc3n2C2CCC2)cc1)C1CC1` (stereo not shown) [Compound 1329, {4-[3-cyano-1-cyclobutyl-6-(2-[1,2,4]triazol-1-yl-ethoxy)-1H-indol-2-yl]-phenyl}-carbamic acid 1-cyclopropyl-ethyl ester], the melting point came out at 98 °C.
